According to ChEMBL document CHEMBL4196016, “Regioselective synthesis of 7-O-esters of the flavonolignan silibinin and SARs lead to compounds with overadditive neuroprotective effects” (Eur J Med Chem, 2018):
The source made the active and inactive calls. No cut-off for these calls is given here.

Legend:
[1] = test system: HT-22; test: Neuroprotective activity against glutamate-induced mouse HT22 cells assessed as increase in cell survival at 25 to 50 uM cotreated with glutamate measured after 24 hrs by MTT assay; assay type: functional, cell-based
[2] = Antioxidant activity assessed as reduction of Fe3+-TPTZ to Fe2+-TPTZ measured every 15 secs for 4 mins by FRAP assay; assay type: functional
[3] = test system: HT-22; test: Neuroprotective activity against glutamate-induced mouse HT22 cells assessed as increase in cell survival at 1 to 25 uM using 1:1 test compound to silibinin ratio cotreated with glutamate measured after 24 hrs by MTT assay; assay type: functional, cell-based
[4] = Antioxidant activity assessed as reduction of Fe3+-TPTZ to Fe2+-TPTZ using 1:1 test compound to silibinin ratio measured every 15 secs for 4 mins by FRAP assay; assay type: functional
[5] = test system: HT-22; test: Neuroprotective activity against glutamate-induced mouse HT22 cells assessed as increase in cell survival at 1 to 25 uM cotreated with glutamate measured after 24 hrs by MTT assay; assay type: functional, cell-based
[6] = test system: BV-2; test: Antiinflammatory activity in mouse BV2 cells assessed as inhibition of LPS-induced microglial activation after 24 hrs by Griess reagent based assay; assay type: functional, cell-based; conditions: BV-2, 24 h
[7] = test system: HT-22; test: Neurotoxicity against mouse HT22 cells assessed as decrease in cell viability at 25 uM measured after 24 hrs by MTT assay; assay type: toxicity, cell-based; conditions: ht-22, 24 h
[8] = test system: HT-22; test: Neuroprotective activity against IAA-induced ischemia in mouse HT22 cells assessed as increase in cell viability cotreated with IAA for 2 hrs followed by IAA wash out measured after 24 hrs by MTT assay; assay type: functional, cell-based
[9] = test system: PC-12; test: Induction of rat PC12 cells differentiation assessed as neurite outgrowth at 10 uM after 24 hrs relative to control; assay type: functional
[10] = test system: HT-22; test: Neurotoxicity against mouse HT22 cells assessed as decrease in cell viability at 25 uM using 1:1 test compound to silibinin ratio measured after 24 hrs by MTT assay; assay type: toxicity, cell-based; conditions: ht-22, 24 h
[11] = Antioxidant activity assessed as reduction of Fe3+-TPTZ to Fe2+-TPTZ using 1:1 test compound to ferulic acid ratio measured every 15 secs for 4 mins by FRAP assay; assay type: functional
[12] = target: T1, Amyloid-beta precursor protein (Homo sapiens, UniProt P05067); test: Inhibition of amyloid beta 42 (unknown origin) expressed in Escherichia coli BL21 (DE3) aggregation at 10 uM incubated for overnight by Th-S fluorescence staining based UV-Vis spectrophotometer (reference value: 0 +/- 1%)
[13] = target: T2, Microtubule-associated protein tau (Homo sapiens, UniProt P10636); test: Inhibition of tau (unknown origin) aggregation expressed in Escherichia coli (DE3) at 100 uM incubated for overnight by Th-S fluorescence staining based UV-Vis spectrophotometer (reference value: 0.0 +/- 2.4%)
[14] = target: T2, Microtubule-associated protein tau; test: Inhibition of tau (unknown origin) aggregation expressed in Escherichia coli (DE3) at 10 uM incubated for overnight by Th-S fluorescence staining based UV-Vis spectrophotometer (reference value: 0.0 +/- 1.4%)
[15] = Antioxidant activity assessed as ferric ion reduction by measuring FeSO4 equivalents reducing Fe3+-TPTZ to Fe2+-TPTZ measured every 15 secs for 4 mins by FRAP assay; assay type: functional
[16] = target: T1, Amyloid-beta precursor protein; test: Inhibition of amyloid beta 42 (unknown origin) expressed in Escherichia coli BL21 (DE3) aggregation at 100 uM incubated for overnight by Th-S fluorescence staining based UV-Vis spectrophotometer (reference value: 0 +/- 4.4%)
[17] = test system: HT-22; test: Neurotoxicity against mouse HT22 cells assessed as decrease in cell viability at 25 uM using 1:1 test compound to cinnamic acid ratio measured after 24 hrs by MTT assay; assay type: toxicity, cell-based; conditions: ht-22, 24 h
[18] = Antioxidant activity assessed as reduction of Fe3+-TPTZ to Fe2+-TPTZ using equimolar mixture of test compound and cinnamic acid measured every 15 secs for 4 mins by FRAP assay; assay type: functional
[19] = test system: HT-22; test: Neuroprotective activity against glutamate-induced mouse HT22 cells assessed as increase in cell survival at 1 to 25 uM using 1:1 test compound to ferulic acid ratio cotreated with glutamate measured after 24 hrs by MTT assay; assay type: functional, cell-based
[20] = test system: HT-22; test: Neurotoxicity against mouse HT22 cells assessed as decrease in cell viability at 25 uM using 1:1 test compound to ferulic acid ratio measured after 24 hrs by MTT assay; assay type: toxicity, cell-based; conditions: ht-22, 24 h
[21] = test system: HT-22; test: Neuroprotective activity against glutamate-induced mouse HT22 cells assessed as increase in cell survival at 10 uM cotreated with glutamate measured after 24 hrs by MTT assay; assay type: functional, cell-based
[22] = test system: HT-22; test: Neuroprotective activity against glutamate-induced mouse HT22 cells assessed as increase in cell survival at 25 uM cotreated with glutamate measured after 24 hrs by MTT assay; assay type: functional, cell-based
[23] = target: T1, Amyloid-beta precursor protein; test: Inhibition of amyloid beta 42 (unknown origin) expressed in Escherichia coli BL21 (DE3) aggregation incubated for overnight by Th-S fluorescence staining based UV-Vis spectrophotometer
[24] = target: T2, Microtubule-associated protein tau; test: Inhibition of tau (unknown origin) aggregation expressed in Escherichia coli (DE3) incubated for overnight by Th-S fluorescence staining based UV-Vis spectrophotometer
[25] = test system: HT-22; test: Neurotoxicity against mouse HT22 cells assessed as decrease in cell viability at 10 uM measured after 24 hrs by MTT assay; assay type: toxicity, cell-based; conditions: ht-22, 24 h

T1 sequence (P05067 whole entry): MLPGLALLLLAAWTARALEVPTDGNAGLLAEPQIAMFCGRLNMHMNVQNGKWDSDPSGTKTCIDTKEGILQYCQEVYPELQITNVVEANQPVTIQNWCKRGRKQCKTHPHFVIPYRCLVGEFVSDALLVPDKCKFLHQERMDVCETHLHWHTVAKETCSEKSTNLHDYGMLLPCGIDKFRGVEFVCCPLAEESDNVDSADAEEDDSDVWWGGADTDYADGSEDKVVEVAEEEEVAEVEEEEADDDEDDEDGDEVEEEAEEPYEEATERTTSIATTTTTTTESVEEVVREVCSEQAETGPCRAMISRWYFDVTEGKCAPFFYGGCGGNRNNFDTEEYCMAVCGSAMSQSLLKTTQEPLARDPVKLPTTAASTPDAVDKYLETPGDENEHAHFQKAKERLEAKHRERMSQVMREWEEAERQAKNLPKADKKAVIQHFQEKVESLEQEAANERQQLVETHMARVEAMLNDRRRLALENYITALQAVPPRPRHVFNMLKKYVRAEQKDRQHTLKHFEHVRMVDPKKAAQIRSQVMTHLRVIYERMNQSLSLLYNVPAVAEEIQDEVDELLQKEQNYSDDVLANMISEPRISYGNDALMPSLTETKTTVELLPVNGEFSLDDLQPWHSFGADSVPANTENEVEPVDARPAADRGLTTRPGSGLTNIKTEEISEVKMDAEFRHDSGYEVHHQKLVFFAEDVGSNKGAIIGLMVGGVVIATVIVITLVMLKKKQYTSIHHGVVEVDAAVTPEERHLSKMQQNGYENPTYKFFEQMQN
T2 sequence (P10636 whole entry): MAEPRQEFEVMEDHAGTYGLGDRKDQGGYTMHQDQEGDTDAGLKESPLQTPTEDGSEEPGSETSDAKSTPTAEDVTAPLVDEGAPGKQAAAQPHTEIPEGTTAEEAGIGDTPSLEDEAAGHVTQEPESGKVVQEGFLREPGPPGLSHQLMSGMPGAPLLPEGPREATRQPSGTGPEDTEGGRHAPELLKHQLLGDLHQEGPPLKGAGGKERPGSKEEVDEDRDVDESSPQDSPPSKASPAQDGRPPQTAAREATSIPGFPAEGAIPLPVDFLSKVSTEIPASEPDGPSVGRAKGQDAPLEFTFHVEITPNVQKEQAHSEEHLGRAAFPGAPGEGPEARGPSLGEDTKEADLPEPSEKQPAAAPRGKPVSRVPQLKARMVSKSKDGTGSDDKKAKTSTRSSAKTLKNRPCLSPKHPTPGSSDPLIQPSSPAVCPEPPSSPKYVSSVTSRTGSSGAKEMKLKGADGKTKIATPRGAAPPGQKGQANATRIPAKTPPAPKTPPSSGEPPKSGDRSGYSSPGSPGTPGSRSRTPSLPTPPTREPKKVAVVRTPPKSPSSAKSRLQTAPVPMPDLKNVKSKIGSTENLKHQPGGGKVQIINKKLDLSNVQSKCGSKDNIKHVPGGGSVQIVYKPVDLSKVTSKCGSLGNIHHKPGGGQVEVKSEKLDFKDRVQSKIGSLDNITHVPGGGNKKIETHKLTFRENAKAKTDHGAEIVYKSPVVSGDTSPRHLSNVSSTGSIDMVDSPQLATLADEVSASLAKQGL

**Q.** With `COc1cc(C2Oc3cc([C@H]4Oc5cc(OC(=O)CCc6cc(OC)c(O)c(OC)c6)cc(O)c5C(=O)[C@@H]4O)ccc3OC2CO)ccc1O` (stereo partly drawn) as the compound, how does the Activity [1] read?
**A.** inactive

**Q.** And the Activity [2]?
**A.** Active

**Q.** For `COc1cc(/C=C/C(=O)O)ccc1O` [FERULATE], which Activity [3] is on record?
**A.** inactive

**Q.** And the Activity [4]?
**A.** Active

**Q.** What about the Activity [5] of the same compound?
**A.** inactive

**Q.** And the EC50 [6]?
**A.** > 10 µM

**Q.** What about the Activity [7] of the same compound?
**A.** Non-Toxic

**Q.** And the EC50 [8]?
**A.** > 10 µM

**Q.** And the Activity [2]?
**A.** Active

**Q.** What about the Activity [9] of the same compound?
**A.** inactive

**Q.** What about the Activity [10] of the same compound?
**A.** Toxic

**Q.** What does the source list for `COc1cc(C2Oc3cc([C@H]4Oc5cc(O)cc(O)c5C(=O)[C@@H]4O)ccc3OC2CO)ccc1O` (stereo partly drawn) [SILIBININ]?
**A.** Activity [11]: Active; inhibition [12]: 4.8%; inhibition [13]: 10.1%; inhibition [14]: 2%; Activity [15]: 0.6 equiv; Activity [5]: inactive; inhibition [16]: 16%; Activity [17]: Toxic; Activity [18]: Active; EC50 [6]: > 10 µM; Activity [7]: Non-Toxic; EC50 [8]: > 10 µM; Activity [19]: inactive; Activity [20]: Toxic; Activity [9]: 38%

**Q.** Which Activity [15] does the source give for `O=C1O[C@H]([C@@H](O)CO)C(O)=C1O` here?
**A.** 2 equiv

**Q.** Which Activity [1] does the source give for `COc1cc(C2Oc3cc([C@H]4Oc5cc(OC(=O)CCc6ccc7c(c6)OC(C)(C)O7)cc(O)c5C(=O)[C@@H]4O)ccc3OC2CO)ccc1O` (stereo partly drawn) here?
**A.** inactive

**Q.** What about the Activity [2] of the same compound?
**A.** inactive

**Q.** Which results are given for `COc1cc(C2Oc3cc([C@H]4Oc5cc(OC(=O)/C=C/c6ccc7c(c6)OC(C)(C)O7)cc(O)c5C(=O)[C@@H]4O)ccc3OC2CO)ccc1O` (stereo partly drawn)?
**A.** Activity [21]: Active; Activity [1]: Active; Activity [22]: inactive; Activity [2]: inactive

**Q.** For `COc1cc(/C=C/C(=O)Oc2cc(O)c3c(c2)O[C@H](c2ccc4c(c2)O[C@H](c2ccc(O)c(OC)c2)[C@@H](CO)O4)[C@@H](O)C3=O)ccc1O`, which inhibition [12] is on record?
**A.** 13.2%

**Q.** What about the inhibition [13] of the same compound?
**A.** 67.2%

**Q.** And the inhibition [14]?
**A.** 36.8%

**Q.** What about the IC50 [23] of the same compound?
**A.** 85.5 µM

**Q.** And the IC50 [24]?
**A.** 27.2 µM

**Q.** And the inhibition [16]?
**A.** 52.7%

**Q.** And the Activity [25]?
**A.** Toxic

**Q.** And the EC50 [6]?
**A.** 9.8 µM

**Q.** And the EC50 [8]?
**A.** 1.4 µM

**Q.** And the Activity [2]?
**A.** Active

**Q.** What about the Activity [9] of the same compound?
**A.** 50%

**Q.** For `COc1cc(CCC(=O)Oc2cc(O)c3c(c2)O[C@H](c2ccc4c(c2)OC(c2ccc(O)c(OC)c2)C(CO)O4)[C@@H](O)C3=O)ccc1O` (stereo partly drawn), which Activity [1] is on record?
**A.** inactive

**Q.** And the Activity [2]?
**A.** Active

**Q.** With `COc1cc(C2Oc3cc([C@H]4Oc5cc(OC(=O)c6ccc7c(c6)OC(C)(C)O7)cc(O)c5C(=O)[C@@H]4O)ccc3OC2CO)ccc1O` (stereo partly drawn) as the compound, how does the Activity [21] read?
**A.** Active

**Q.** And the Activity [22]?
**A.** inactive

**Q.** And the Activity [2]?
**A.** inactive

**Q.** Which Activity [22] does the source give for `COc1cc(C2Oc3cc([C@H]4Oc5cc(OC(=O)c6cc(OC)c(O)c(OC)c6)cc(O)c5C(=O)[C@@H]4O)ccc3OC2CO)ccc1O` (stereo partly drawn) here?
**A.** Active

**Q.** What about the Activity [2] of the same compound?
**A.** Active

**Q.** What does the source list for `COc1cc(C2Oc3cc([C@H]4Oc5cc(OC(=O)CCc6ccccc6)cc(O)c5C(=O)[C@@H]4O)ccc3OC2CO)ccc1O` (stereo partly drawn)?
**A.** Activity [1]: inactive; Activity [2]: inactive
